The source of these data is patent US20110039763A1, “TARGETED ANTIMICROBIAL MOIETIES” (C3 JIAN, INC., priority 2009, published 2011).

The test system of the assay is microorganisms. The experiment in a line: Morphology, biofilm and growth disrupting peptides (Table 5). The class given is cell-based. On the set-up: key: A: Peptide aggregates; B: Less hyphal formation; Clumps; Diffuse clumps and small polyps; F: Diffuse growth; H: Thin; I: Growth inhibition; Microcolony formation; Rippled; Small polyps; Thick; W: Halo formation on top, microlonies on bottom. From the text: In certain embodiments peptides that induce alterations in phenotype or other biological activities can also be used as antimicrobial effector moieties.

Turning to DLLKSLLGQDGAKNDEIIEFIKIIMEK [PF-591], the “Organism, effect” value reads like this: (C. jejuni) “C. jejuni (C)”; (E. faecalis) “E. faecalis (A)”; (S. pneumoniae) “S. pneumoniae (R)”.

As for KTPNDKIHKTIIIKHIIL [PF-533], the “Organism, effect” value (E. coli) is given as “E. coli (R)”; the “Organism, effect” value (E. faecalis) is listed as “E. faecalis (C)”; the “Organism, effect” value (MRSA) was “MRSA (H)”; the “Organism, effect” value (S. epidermidis) is listed as “S. epidermidis (H)”; the “Organism, effect” value (S. pneumoniae) is recorded as “S. pneumoniae (C)”. Take “PF-019 (NDTNK; Peptide with targeting and/or antimicrobial activity)”: the “Organism, effect: MRSA” value (MRSA) is “MRSA (M)”. Take “PF-032 (RIVVPAHQSNMASTPNLSITP; Peptide with targeting and/or antimicrobial activity)”: the “Organism, effect: C. jeikeium” value is reported as “C. jeikeium (C)”. For the same substance, the “Organism, effect: S. epidermidis” value (S. epidermidis) is recorded as “S. epidermidis (S)”. Consider “PF-059 (TITLKAGIERALHEEVPGVIEVEQVF; Peptide with targeting and/or antimicrobial activity)”, for which, under “C. jejuni”, the “Organism, effect: C. jejuni” value is on record as “C. jejuni (C)”. Turning to “PF-199 (FPAFSFGAIAGSVSVAR; Peptide with targeting and/or antimicrobial activity)”, the “Organism, effect: C. jeikeium” value was “C. jeikeium (R)” and the “Organism, effect: M. luteus” value is reported as “M. luteus (A)”. Further, where the note is “S. epidermidis”, the “Organism, effect: S. epidermidis” value is “S. epidermidis (C)”. For “PF-220 (VDPADDGTRHIRPEDGDPIEIDE; Peptide with targeting and/or antimicrobial activity)”, the “Organism, effect: S. pneumoniae” value (S. pneumoniae) is reported as “S. pneumoniae (H)”. For the substance “PF-250 (SEDIFGRLANEKANGLEELRKIRLKQ; Peptide with targeting and/or antimicrobial activity)”, the “Organism, effect: M. luteus” value was “M. luteus (T)”. Same read-out and setting: in the case of “PF-264 (MQSLSNRQSLIASYILMGIFLSFGYPPASLSKFFCRLSHL; Peptide with targeting and/or antimicrobial activity)” it was “M. luteus (H)”. Consider “PF-274 (SIQEAEKIIKNDPFYIHDVADYDFMWFEPSKSLEEIKEFV; Peptide with targeting and/or antimicrobial activity)”, for which the “Organism, effect: M. luteus” value is “M. luteus (M)”. As for “PF-290 (MVHDMTNGTLIIVKH; Peptide with targeting and/or antimicrobial activity)”, the “Organism, effect: S. epidermidis” value (S. epidermidis) is listed as “S. epidermidis (C)”. Take “PF-293 (YDPLK; Peptide with targeting and/or antimicrobial activity)”: the “Organism, effect: S. epidermidis” value (S. epidermidis) is “S. epidermidis (C)”. As for “PF-296 (GAFGMPSIKTNTICGEKGKFISACDAWLSNLK; Peptide with targeting and/or antimicrobial activity)”, the “Organism, effect: B. subtilis” value (B. subtilis) is listed as “B. subtilis (C)”. Besides, where the note is “S. epidermidis”, the “Organism, effect: S. epidermidis” value was “S. epidermidis (C)”. As for “PF-303 (EYPWSWISEPWPWDKSFYK; Peptide with targeting and/or antimicrobial activity)”, the “Organism, effect: B. subtilis” value (B. subtilis) is listed as “B. subtilis (C)”.

With “PF-310 (GVALIGTILVPLLSGLFG; Peptide with targeting and/or antimicrobial activity)”, the “Organism, effect: S. epidermidis” value (S. epidermidis) is “S. epidermidis (C)”. Regarding “PF-318 (MGRHLWNPSYFVATVSENTEEQIRKYINNQKKQVK; Peptide with targeting and/or antimicrobial activity)”, where the note is “B. subtilis”, the “Organism, effect: B. subtilis” value is listed as “B. subtilis (C)”. In addition, for the setting “S. epidermidis”, the “Organism, effect: S. epidermidis” value is recorded as “S. epidermidis (C)”. Regarding “PF-335 (AAYPIEDWSDWYEDFFIMLSNI; Peptide with targeting and/or antimicrobial activity)”, under “B. subtilis”, the “Organism, effect: B. subtilis” value is on record as “B. subtilis (C)”. Further, the “Organism, effect: S. epidermidis” value (S. epidermidis) was “S. epidermidis (C)”. For the substance “PF-339 (KKIDILINKYMYLSK; Peptide with targeting and/or antimicrobial activity)”, the “Organism, effect: B. subtilis” value (B. subtilis) was “B. subtilis (C)”. Moreover, for the setting “S. epidermidis”, the “Organism, effect: S. epidermidis” value is listed as “S. epidermidis (C)”. Take “PF-342 (AFSGVYKTLIVYTRRK; Peptide with targeting and/or antimicrobial activity)”: the “Organism, effect: B. subtilis” value (B. subtilis) is listed as “B. subtilis (C)”. Also, the “Organism, effect: S. epidermidis” value (S. epidermidis) was “S. epidermidis (C)”. For “PF-415 (MIDVTIGQKSKTGAFNASYSICFSGENFSF; Peptide with targeting and/or antimicrobial activity)”, the “Organism, effect: S. pneumoniae” value (S. pneumoniae) was “S. pneumoniae (D)”. With “PF-419 (VVTGKVGSLPQIK; Peptide with targeting and/or antimicrobial activity)”, the “Organism, effect: S. pneumoniae” value (S. pneumoniae) was “S. pneumoniae (H)”. As for “PF-449 (MPTTKSKQKGWTNTKKASNTQ; Peptide with targeting and/or antimicrobial activity)”, the “Organism, effect” value (S. pneumoniae) is “S. pneumoniae (H)”. As to “PF-455 (MARNDDDIKKIKGTLGQSPEVYGERKLPYT; Peptide with targeting and/or antimicrobial activity)”, the “Organism, effect” value (S. pneumoniae) is “S. pneumoniae (A)”.

For the substance “PF-468 (EDNKDKKDKKDK; Peptide with targeting and/or antimicrobial activity)”, the “Organism, effect” value (S. pneumoniae) is on record as “S. pneumoniae (H)”. As to “PF-485 (KNSMSRSIALID; Peptide with targeting and/or antimicrobial activity)”, the “Organism, effect” value (S. pneumoniae) is given as “S. pneumoniae (A)”. With “PF-532 (KFIYKYKLSFIIYKILIQTLTMELNK; Peptide with targeting and/or antimicrobial activity)”, the “Organism, effect” value reads like this: (E. coli) “E. coli (C)”; (E. faecalis) “E. faecalis (C)”; (MRSA) “MRSA (C)”; (S. pneumoniae) “S. pneumoniae (C)”. As to “PF-534 (KYFHLFYHNIIHYSKQHLSLKVDFKN; Peptide with targeting and/or antimicrobial activity)”, the “Organism, effect” value (E. coli) is “E. coli (R)”; the “Organism, effect” value (E. faecalis) was “E. faecalis (C)”; the “Organism, effect” value (MRSA) is given as “MRSA (C)”; the “Organism, effect” value (S. epidermidis) was “S. epidermidis (C)”; the “Organism, effect” value (S. pneumoniae) is reported as “S. pneumoniae (R)”.

For “PF-535 (NIKTRKRALKIIKQHQRSK; Peptide with targeting and/or antimicrobial activity)”, the “Organism, effect” value runs as follows: (P. aeruginosa) “P. aeruginosa (H)”; (S. pneumoniae) “S. pneumoniae (H)”.

As for “PF-536 (MEPIPHIMIIANQIGIIIEKA; Peptide with targeting and/or antimicrobial activity)”, the “Organism, effect” value runs as follows: (E. coli) “E. coli (R)”; (E. faecalis) “E. faecalis (C)”; (MRSA) “MRSA (C)”; (P. aeruginosa) “P. aeruginosa (H)”; (S. epidermidis) “S. epidermidis (C)”; (S. pneumoniae) “S. pneumoniae (M)”. With “PF-541 (RRNLNSPNIKTRKRALKIIKQHQRSK; Peptide with targeting and/or antimicrobial activity)”, the “Organism, effect” value is “E. coli (H)” (E. coli) and “S. pneumoniae (H)” (S. pneumoniae). For “PF-561 (ESLEADVQAELDTEAAKYPALPASF; Peptide with targeting and/or antimicrobial activity)”, the “Organism, effect” value is “B. subtilis (D)” (B. subtilis) and “MRSA (M)” (MRSA).
